Assay results: the supplement of paper PMC3974653
Counter-ions that a name gives are not always drawn.

System: MTT (mouse pheochromocytoma)
Assay: IC50 of cell viability (ATP content)
Details: (24 or 48 h)
Method in brief: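 After overnight culture at 37°C, 5% CO2 in white 1536-well plates, MTT mouse pheochromocytoma cells were given 23 nl of library compound in DMSO by pintool across 8 concentrations, spanning final 0.5 nM to 46 µM. Following 24 or 48 hrs, CellTiter-Glo luminescence was read after 15 minutes and normalised against positive-control (100%) and DMSO (0%) wells. A four-parameter logistic model provided the IC50.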

| Structure (SMILES) | IC50 of cell viability [µM] |
| --- | --- |
| Cc1c(Cl)cccc1Nc1ccccc1C(=O)O [TOLFENAMIC ACID] | > 46 |
| Cc1cccc(N(C)C(=S)Oc2ccc3c(c2)CCC3)c1 [TOLINDATE] | > 46 |
| Cc1ccc(S(=O)(=O)NC(=O)NC2CCCC2)cc1 [TOLPENTAMIDUM] | > 46 |
| Cc1ccc(C(=O)C(C)CN2CCCCC2)cc1.Cl (centres undefined) [TOLPERISONE HYDROCHLORIDE] | > 46 |
| Cc1ccccc1C(=O)Nc1ccc(C(=O)N2CCCC(O)c3cc(Cl)ccc32)c(C)c1 (centres undefined) [TOLVAPTAN] | > 46 |
| CC1CC[C@@]2(NC1)OC1CC3C4CC[C@@H]5CC(O)CC[C@@]5(C)C4CC[C@]3(C)C1C2C.Cl (some centres undefined) [TOMATIDINE HYDROCHLORIDE] | > 46 |
| CC1(C)OC2CO[C@]3(CO[S+](N)(=O)[O-])OC(C)(C)OC3C2O1 (some centres undefined) [TOPIRAMATE] | > 46 |
| Cc1ccc([S+](=O)([O-])NC(=O)NC(C)Cc2ccccc2)cc1 (centres undefined) [TOSIFENUM] | > 46 |
| NC1CCN(c2nc3c(cc2F)c(=O)c(C(=O)O)cn3-c2ccc(F)cc2F)C1 (centres undefined) [TOSUFLOXACIN TOSILATE] | > 46 |
| CCOC(=O)C(CCc1ccccc1)NC(C)C(=O)N1C(C(=O)O)CC2CCCCC21 (centres undefined) [TRANDOLAPRIL] | > 46 |
| O=C(O)/C=C(/CC(=O)O)C(=O)O [TRANS-ACONITIC ACID] | > 46 |
| [H][C@]1(\C=C(/Cl)Cl)[C@]([H])(C(=O)OCC2=C(F)C(F)=CC(F)=C2F)C1(C)C [TRANSFLUTHRIN] | > 46 |
| CC(=O)O[C@H]1CC[C@H]2[C@@H]3CCC4=CC(=O)CCC4=C3C=C[C@]12C [TRENBOLONE ACETATE] | > 46 |
| C[S+](=O)([O-])OCC(O)C(O)CO[S+](C)(=O)[O-] (centres undefined) [TREOSULFAN] | > 46 |
| CC1=NN=C2C\N=C(\C3=C(Cl)C=CC=C3)C4=C(C=CC(=C4)Cl)[N]12 [TRIAZOLAM] | > 46 |
| O=C(Nc1ccc(Br)cc1)c1cc(Br)cc(Br)c1O [TRIBROMSALAN] | > 46 |
| O[C@H]1[C@H]2[C@H](O)CCCN2C[C@H]1O [TRIDOLGOSIRUM] | > 46 |
| C[C@]12CC[C@H]3[C@@H](CC[C@@]45O[C@@H]4C(=O)C(C#N)C[C@]35C)[C@@H]1CC[C@@H]2O (some centres undefined) [TRILOSTANE] | > 46 |
| CCC(COC(=O)c1cc(OC)c(OC)c(OC)c1)(c1ccccc1)N(C)C.O=C(O)/C=C\C(=O)O (centres undefined) [TRIMEBUTINE MALEATE] | > 46 |
| CN(C)CCN(Cc1ccccc1)c1ccccn1.O=C(O)CC(O)(CC(=O)O)C(=O)O [TRIPELENNAMINE CITRATE] | > 46 |
| Cc1cc(C)cc(C(=O)OC2CC3CCC(C2)N3C)c1 (centres undefined) [TROPANYL 3,5-DIMETHYLBENZOATE] | > 46 |
| O=C(O[C@H]1C[C@H]2CC[C@@H](C1)[N+]21CCCC1)C(O)(c1ccccc1)c1ccccc1 [TROSPIUM CHLORIDE] | > 46 |
| CCCCCC(C)N.O=[S+]([O-])(O)O (centres undefined) [TUAMINOHEPTANE SULFATE] | > 46 |
| CC(C)(C)NCC(O)c1ccccc1Cl.Cl (centres undefined) [TULOBUTEROL] | > 46 |

Further lines, results first:

| IC50 of cell viability [µM] | Structure (SMILES) |
| --- | --- |
| > 46 | CCOc1cc(OCC)c(C(=O)CCC(=O)O)cc1OCC [TREPIBUTONE] |
| > 46 | CC1=C(/C=C/C(C)=C/C=C/C(C)=C/C(=O)O)C(C)(C)CCC1 [TRETINOIN] |
| > 46 | C[C@@]12CC(O)[C@]3(F)C(CCC/4=C/C(=O)/C=C\[C@@]34C)C1CC(O)[C@@]2(O)C(=O)CO (some centres undefined) [TRIAMCINOLONE] |
| > 46 | CCOC(=O)c1cccc(N)c1 [TRICAINE METHANESULFONATE] |
| > 46 | OCCOCCOCCO [TRIETHYLENE GLYCOL] |
| > 46 | CC(CN(C)C)CN1c2ccccc2Sc2ccc(C(F)(F)F)cc21 (centres undefined) [TRIFLUOMEPRAZINE MALEATE] |
| > 46 | CN(C)CCCN1c2ccccc2Sc2ccc(C(F)(F)F)cc21.Cl [TRIFLUPROMAZINE HYDROCHLORIDE] |
| > 46 | Cl.OC(CCN1CCCCC1)(c1ccccc1)C1CCCCC1 (centres undefined) [TRIHEXYPHENIDYL HYDROCHLORIDE] |
| > 46 | CC12CCC(C[N+](C)(CCC[N+](C)(C)C)C1)C2(C)C (centres undefined) [TRIMETHIDINII METHOSULFAS] |
| > 46 | COc1cc(C(=O)N2CCOCC2)cc(OC)c1OC [TRIMETOZINUM] |
| > 46 | FC(F)(F)c1ccccc1-n1ccnc1 [TRIM] |
| > 46 | CC(C)C[C@H](NC(=O)[C@@H](Cc1c[nH]c2ccccc12)NC(=O)[C@@H](Cc1ccc(O)cc1)NC(=O)[C@@H](CO)NC(=O)[C@@H](Cc1c[nH]c2ccccc12)NC(=O)C(Cc1c[nH]cn1)NC(=O)C1CCC(=O)N1)C(=O)N[C@@H](CCCNC(=N)N)C(=O)N1CCC[C@@H]1C(=O)NCC(N)=O (some centres undefined) [TRIPTORELIN PAMOATE] |
| > 46 | COc1cc(C(=O)N2CCCCCCC2)cc(OC)c1OC [TROCIMINUM] |
| > 46 | NC(CO)(CO)CO [TROMETHAMINE] |
| > 46 | CCN(Cc1ccncc1)C(=O)C(CO)c1ccccc1 (centres undefined) [TROPICAMIDE] |
| > 46 | CN1C2CCC1CC(OC(=O)c1c[nH]c3ccccc13)C2 (centres undefined) [TROPISETRON] |
| > 46 | NC1C2CN(CC12)C3=NC4=C(C=C3F)C(=O)C(=C/N4C5=CC=C(F)C=C5F)\C(O)=O (centres undefined) [TROVAFLOXACIN MESYLATE] |
| > 46 | NC/1=N/C(=O)N(/C=C1)[C@H]2CO[C@H](CO)O2 [TROXACITABINE (Troxatyl)] |
| > 46 | CC1OC(OCC2OC(OC/3=C(/OC4=C(C(=CC(=C4)OCCO)O)C3=O)C5=CC=C(OCCO)C(=C5)OCCO)C(O)C(O)C2O)[C@@H](O)C(O)C1O (some centres undefined) [TROXERUTIN] |
| > 46 | COc1cc(C(=O)NC2CCCNC2)cc(OC)c1OC (centres undefined) [TROXIPIDE] |
| > 46 | CCC1OC(=O)CC(O)C(C)[C@@H](O[C@@H]2OC(C)[C@H](O[C@@H]3C[C@@](C)(O)C(O)C(C)O3)C(N(C)C)C2O)[C@H](CC=O)CC(C)C(=O)/C=C/C(C)=C/[C@@H]1COC1OC(C)C(O)C(OC)[C@@H]1OC (some centres undefined) [TYLOSIN TARTRATE] |
| > 46 | CCCC(=O)Nc1c(I)cc(I)c(C[C@H](CC)C(=O)O)c1I [TYROPANOATE SODIUM] |
| > 46 | N[C@@H](Cc1ccc(O)cc1)C(=O)O [TYROSINE] |
| > 46 | CC1(C)S[C@H]2[C@H](NC(=O)[C@@H](N)C3=CC=CC=C3)C(=O)[N@]2[C@H]1C(=O)O[C@@H]4OC(=O)C5=C4C=CC=C5 [Talampicillin hydrochloride] |
| > 46 | O=C1[C@@H]2[C@H]3CC[C@H](C3)[C@@H]2C(=O)N1CCCCN1CCN(c2ncccn2)CC1 [Tandospirone] |
